Measured values: PubChem BioAssay AID330 (DTP/NCI, 2004)
Several values for one entry are separate records, joined by “and”; a condition that tells them apart may be missing. Identical values can stand only once. Inconclusive results and toxic doses are left out. The calls were made as follows: active = survival T/C of 150% or more; inactive = T/C below 125% in these data.

Test system: P388 leukemia ip, CD2F1 mice, survival T/C
Experiment: NCI In Vivo Anticancer Drug Screen. Data for tumor model P388 Leukemia (intraperitoneal) in CD2F1 (CDF1) mice
Conditions: endpoint: median survival time, higher = longer survival
Outline: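 Mice carrying the transplanted tumor received test compound or vehicle. Survival was recorded in each group, and the value is the treated-group measurement divided by that of the vehicle-treated control group.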

[1] = dose: 60.0 mg/kg/injection, schedule: Q01DX005 (ip), vehicle: saline with Tween-80
[2] = dose: 120.0 mg/kg/injection, schedule: Q01DX005 (ip), vehicle: saline with Tween-80
[3] = dose: 240.0 mg/kg/injection, schedule: Q01DX005 (ip), vehicle: saline with Tween-80
[4] = dose: 50.0 mg/kg/injection, schedule: Q01DX009 (ip), vehicle: saline with Tween-80
[5] = dose: 100.0 mg/kg/injection, schedule: Q01DX009 (ip), vehicle: saline with Tween-80
[6] = dose: 200.0 mg/kg/injection, schedule: Q01DX009 (ip), vehicle: saline with Tween-80
[7] = dose: 100.0 mg/kg/injection, schedule: Q04DX002 (ip), vehicle: saline
[8] = dose: 200.0 mg/kg/injection, schedule: Q04DX002 (ip), vehicle: saline
[9] = dose: 400.0 mg/kg/injection, schedule: Q04DX002 (ip), vehicle: saline
[10] = dose: 50.0 mg/kg/injection, schedule: Q01DX005 (ip), vehicle: saline with Tween-80
[11] = dose: 100.0 mg/kg/injection, schedule: Q01DX005 (ip), vehicle: saline with Tween-80
[12] = dose: 200.0 mg/kg/injection, schedule: Q01DX005 (ip), vehicle: saline with Tween-80
[13] = dose: 50.0 mg/kg/injection, schedule: Q01DX005 (ip), vehicle: Klucel (hydroxypropylcellulose) (HPC)
[14] = dose: 100.0 mg/kg/injection, schedule: Q01DX005 (ip), vehicle: Klucel (hydroxypropylcellulose) (HPC)
[15] = dose: 200.0 mg/kg/injection, schedule: Q01DX005 (ip), vehicle: Klucel (hydroxypropylcellulose) (HPC)
[16] = dose: 50.0 mg/kg/injection, schedule: Q01DX009 (ip), vehicle: saline
[17] = dose: 100.0 mg/kg/injection, schedule: Q01DX009 (ip), vehicle: saline
[18] = dose: 200.0 mg/kg/injection, schedule: Q01DX009 (ip), vehicle: saline

Measured: T/C

C/C(CCCC(C)(C)C(=O)O)=N\NC(N)=O
inactive: [1] 100 % of control | [2] 94 % of control | [3] 97 % of control

Nc1nc2c(C(=O)N3CCOCC3)nnn2c2ccccc12
inactive: [4] 100 % of control | [5] 92 % of control | [6] 96 % of control

Cc1csc(N)n1
inactive: [7] 97 % of control | [8] 95 % of control | [9] 101 % of control

O=S1(=O)N=C(Sc2nc3ccccc3s2)c2ccccc21
inactive: [10] 102 % of control | [11] 107 % of control | [12] 117 % of control

CCCCC(O)(CCCC)/C(C)=N/O
inactive: [4] 94 % of control | [5] 91 % of control | [6] 87 % of control

CCC(CNc1cc(OC)cc2cccnc12)NC1CCCCC1 (centres undefined)
inactive: dose: 12.5 mg/kg/injection, schedule: Q01DX005 (ip), vehicle: saline 102 % of control | dose: 25.0 mg/kg/injection, schedule: Q01DX005 (ip), vehicle: saline 99 % of control | dose: 50.0 mg/kg/injection, schedule: Q01DX005 (ip), vehicle: saline 100 % of control and 102 % of control

COc1cc(/C=C/C(=O)NCCCCN=[N+]=[N-])ccc1OCc1ccccc1
inactive: [1] 93 % of control | [2] 96 % of control | [3] 97 % of control

O=C(O)c1cccc(C(=O)O)c1Sc1ccc(Cl)cc1
inactive: dose: 100.0 mg/kg/injection, schedule: Q04DX002 (ip), vehicle: saline with Tween-80 100 % of control | dose: 200.0 mg/kg/injection, schedule: Q04DX002 (ip), vehicle: saline with Tween-80 105 % of control | dose: 400.0 mg/kg/injection, schedule: Q04DX002 (ip), vehicle: saline with Tween-80 100 % of control

O=C(O)/C=N/NS(=O)(=O)c1cccs1
inactive: dose: 12.5 mg/kg/injection, schedule: Q01DX009 (ip), vehicle: other 119 % of control

CC(=O)c1c(O)c(C)c(O)c2c1OC1=CC(=O)/C(=C(/C)N)C(=O)C12C (centres undefined)
inactive: dose: 6.25 mg/kg/injection, schedule: Q01DX009 (ip), vehicle: gum acacia 107 % of control and 112 % of control | dose: 12.5 mg/kg/injection, schedule: Q01DX009 (ip), vehicle: gum acacia 100 % of control and 105 % of control | dose: 25.0 mg/kg/injection, schedule: Q01DX009 (ip), vehicle: gum acacia 102 % of control and 109 % of control | dose: 50.0 mg/kg/injection, schedule: Q01DX009 (ip), vehicle: gum acacia 100 % of control and 86 % of control | dose: 100.0 mg/kg/injection, schedule: Q01DX009 (ip), vehicle: gum acacia 100 % of control and 106 % of control | dose: 200.0 mg/kg/injection, schedule: Q01DX009 (ip), vehicle: gum acacia 102 % of control and 110 % of control

C=C(C)C(=O)NCC(=O)Nc1ccc(CC(NC(C)=O)C(=O)OC)cc1 (centres undefined)
inactive: [10] 102 % of control | [11] 100 % of control | [12] 89 % of control

O=c1oc2ccccc2c(O)c1C(c1ccc2c(c1)OCO2)c1c(O)c2ccccc2oc1=O
inactive: dose: 15.0 mg/kg/injection, schedule: Q01DX005 (ip), vehicle: saline with Tween-80 98 % of control | dose: 30.0 mg/kg/injection, schedule: Q01DX005 (ip), vehicle: saline with Tween-80 96 % of control

C=C1CC2(CC3CCC2(C)C3(C)C)OC1=O (centres undefined)
inactive: dose: 100.0 mg/kg/injection, schedule: Q01DX001 (ip), vehicle: saline 98 % of control | dose: 200.0 mg/kg/injection, schedule: Q01DX001 (ip), vehicle: saline 99 % of control | dose: 400.0 mg/kg/injection, schedule: Q01DX001 (ip), vehicle: saline 99 % of control

Brc1ccc(/C=C/c2ccncc2)cc1
inactive: [10] 104 % of control | [11] 99 % of control | [12] 93 % of control

CCn1c(C)nc2ncn(-c3ccccc3)c2c1=O
inactive: [13] 100 % of control | [14] 100 % of control | [15] 98 % of control

CCOC(=O)/C(C(C)=O)=C1/c2c(ccc(OC)c2OC)C=C2c3cc4c(cc3CCN21)OCO4
inactive: dose: 0.63 mg/kg/injection, schedule: Q01DX009 (ip), vehicle: water 105 % of control | dose: 1.25 mg/kg/injection, schedule: Q01DX009 (ip), vehicle: water 108 % of control | dose: 2.5 mg/kg/injection, schedule: Q01DX009 (ip), vehicle: water 101 % of control | dose: 5.0 mg/kg/injection, schedule: Q01DX009 (ip), vehicle: water 124 % of control | dose: 10.0 mg/kg/injection, schedule: Q01DX009 (ip), vehicle: water 101 % of control | dose: 20.0 mg/kg/injection, schedule: Q01DX009 (ip), vehicle: water 107 % of control

C=CC(=O)NCCCCC(N)C(=O)O (centres undefined)
inactive: [16] 100 % of control | [17] 100 % of control | [18] 97 % of control

CCCSCC
inactive: dose: 100.0 mg/kg/injection, schedule: Q04DX003 (ip), vehicle: saline with Tween-80 104 % of control | dose: 200.0 mg/kg/injection, schedule: Q04DX003 (ip), vehicle: saline with Tween-80 100 % of control | dose: 400.0 mg/kg/injection, schedule: Q04DX003 (ip), vehicle: saline with Tween-80 100 % of control

CSc1cnc(N)s1
inactive: dose: 12.5 mg/kg/injection, schedule: Q01DX009 (ip), vehicle: Klucel (hydroxypropylcellulose) (HPC) 108 % of control | dose: 25.0 mg/kg/injection, schedule: Q01DX009 (ip), vehicle: Klucel (hydroxypropylcellulose) (HPC) 115 % of control | dose: 50.0 mg/kg/injection, schedule: Q01DX009 (ip), vehicle: Klucel (hydroxypropylcellulose) (HPC) 100 % of control | dose: 100.0 mg/kg/injection, schedule: Q01DX009 (ip), vehicle: Klucel (hydroxypropylcellulose) (HPC) 104 % of control

COC(=O)[C@H]1[C@H]2CCOC1(c1cc(OC)c(OC)c(OC)c1)c1cc3c(cc1[C@H]2O)OCO3
inactive: dose: 4.5 mg/kg/injection, schedule: Q01DX009 (ip), vehicle: Klucel (hydroxypropylcellulose) (HPC) 102 % of control | dose: 9.0 mg/kg/injection, schedule: Q01DX009 (ip), vehicle: Klucel (hydroxypropylcellulose) (HPC) 104 % of control | dose: 18.0 mg/kg/injection, schedule: Q01DX009 (ip), vehicle: Klucel (hydroxypropylcellulose) (HPC) 96 % of control | dose: 36.0 mg/kg/injection, schedule: Q01DX009 (ip), vehicle: Klucel (hydroxypropylcellulose) (HPC) 100 % of control

Cc1ccc(C2(Br)C(=O)c3ccccc3C2=O)cc1
inactive: [7] 103 % of control | [8] 102 % of control | [9] 101 % of control

c1ccc(-[n+]2ccc(-c3cc[n+](-c4ccccc4)cc3)cc2)cc1
inactive: dose: 100.0 mg/kg/injection, schedule: Q04DX002 (ip), vehicle: Klucel (hydroxypropylcellulose) (HPC) 97 % of control

C1CC[N-]CC1.CC(=N\O)/C(C)=N/O.CC(=N\O)/C(C)=N/O.N#C[CH-]CC#N.[Co+2]
inactive: dose: 12.5 mg/kg/injection, schedule: Q01DX009 (ip), vehicle: saline with Tween-80 91 % of control | dose: 25.0 mg/kg/injection, schedule: Q01DX009 (ip), vehicle: saline with Tween-80 96 % of control | [4] 97 % of control | [5] 92 % of control

COc1ccc2c(C)cc(N/N=C\c3cccc4ccccc34)nc2c1
inactive: [13] 98 % of control | [14] 93 % of control | [15] 106 % of control

Cc1cccc(Nc2cc(Cl)nc(SCC(=O)O)n2)c1C
inactive: [16] 100 % of control | [17] 98 % of control | [18] 100 % of control
